From paper PMC8959600 (eLife, 2022)

Assays:
E. coli (EcDH5a) = experiment: Checkerboard synergy assay (FIC), laboratory isolate; type: cell-based, Escherichia coli
Description: (§1) Before initiating drug combination assays, the MIC values for both compounds were determined against Shigella (Sf2457T), Salmonella (St14028), and E. coli (EcDH5a) isolates. […] 20 μM moxifloxacin was used as negative control (100% bacterial growth inhibition) in one column and DMSO as positive control (100% bacterial growth). A total of 25 µl of 1 × 10^6 CFU/mL bacterial culture was added to each well of a 384-well plate (μClear; Greiner Bio‐One). Plates were incubated overnight at 37 °C. Next, 10 µl of resazurin were added and plates were incubated at room temperature for 3 hr. Bacterial growth inhibition was measured by fluorescence in a Envision plate reader (PerkinElmer). All assays were performed in duplicate. Combination studies with clinical isolates were performed in 96-well plates (Greiner) adding 200 μl of 1 × 10^6 CFU/mL bacterial culture and following the same checkboard titration method as described above. The range of final working concentrations of each antimicrobial was adjusted based on the MIC of each selected organism.
(§2) MICs were determined for drug A and drug B alone and in combination. […] The sum of FIC was expressed using the following equation: FIC = (MIC of drug A in combination / MIC of drug A alone) + (MIC of drug B in combination / MIC of drug B alone) ([Le Minh et al., 2015]; [Petersen et al., 2006]; [Hall et al., 1983]; [European Committee for Antimicrobial Susceptibility Testing (EUCAST) of the European Society of Clinical Microbiology and Infectious Dieases (ESCMID), 2000]).

S. flexneri 2457T [1] = experiment: Gnotobiotic piglet Shigella infection model, efficacy; type: in vivo; conditions: 6-day experiment
Salmonella = experiment: MIC by micro dilution, clinical Salmonella isolates from Vietnam; type: cell-based; conditions: 117 Salmonella from diarrhoeal cases in Vietnam; read-out: median MIC
Description: (§3) Selected compounds, including Tebipenem, were profiled against a panel of […] clinical isolates of enteric pathogens comprised of Shigella (Vietnam and Kenya; n = 135), non-typhoidal Salmonella (Vietnam; n = 117), Campylobacter (Vietnam; n = 75), and various pathogenic E. coli species (Vietnam; n = 7) ([Butcher et al., 2014]). The antimicrobial susceptibility profile of these organisms is described in Supplementary file 1.
(§4) Compound screening and dose response assays have been described previously ([Van Voorhis et al., 2016]; [Wiegand et al., 2008]). Briefly, the selected bacteria were cultured on the Luria-Bertani agar overnight at 37 °C (Campylobacter isolates were grown in 2.5% Laked Horse Blood cation-adjusted Mueller Hinton medium (CAMHB, Sigma Aldrich) and incubated in microaerophilic conditions (10% CO2, 5% O2 and 85% N2) at 42 °C); colonies were added to sterile PBS to form 0.5 McFarland solutions. […] The activity of the chemical was recorded as being active (yes) or non-active (no) for each of the tested chemicals. A non-active result was recorded when there was no evidence of bacterial inhibition, and the culture area was indistinguishable from the negative control.
(§5) MICs were evaluated using the micro dilution assay in Müller Hinton broth using 1 mM chemical stock solutions, and a final concentration of 5 × 10^5 CFU/mL bacteria. […]

Shigella (Sf2457T) = experiment: Checkerboard synergy assay (FIC), laboratory isolate; type: cell-based, Shigella flexneri
Description: as §1, §2

in vivo = conditions: female, C57, mouse; for bioavailability: mice, n = 3
S. flexneri 2457T [2] = type: in vivo; conditions: mice, 39 mg/kg Tebipenem freebase subcutaneously, 24 hr after intraperitoneal infection
Campylobacter jejuni = experiment: MIC by micro dilution, clinical Campylobacter isolates from Vietnam; type: cell-based; conditions: 75 Campylobacter jejuni from diarrhoeal cases in Vietnam; read-out: median MIC
Description: as §3, §4, §5

[3] = in combination with LpxC inhibitor PF-5081090
[4] = in combination with azithromycin
[5] = in combination with ceftriaxone
[6] = in combination with ciprofloxacin

In the case of `C[C@@H](O)[C@H]1C(=O)N2C(C(=O)O)=C(SC3CN(C4=NCCS4)C3)[C@H](C)[C@H]12` [Tebipenem], the “interaction (FIC index)” value (E. coli (EcDH5a); [3]) is reported as “partial synergy”, the “reduction of the MIC against Tebipenem” value (E. coli (EcDH5a); [3]) is reported as greater than 10 fold and the “interaction (FIC index)” value (E. coli (EcDH5a); [4]) is reported as “indifference or antagonism”. For the same molecule, the “interaction (FIC index)” value (E. coli (EcDH5a); [5]) was “indifference or partial synergy”, the “interaction (FIC index)” value (E. coli (EcDH5a); [6]) was “indifference or partial synergy” and the “interaction (FIC index)” value (E. coli (EcDH5a); in combination with mecillinam) was “indifference or partial synergy”. For the same molecule, the “weight gain vs vehicle-treated piglets” value (S. flexneri 2457T [1]) was “not statistically significant”, the MIC (Salmonella) was less than 0.1 µM and the “interaction (FIC index)” value (Shigella (Sf2457T); [3]) was “partial synergy”. For the same molecule, the “reduction of the MIC against Tebipenem” value (Shigella (Sf2457T); [3]) was greater than 10 fold, the “interaction (FIC index)” value (Shigella (Sf2457T); [4]) was “partial synergy” and the “interaction (FIC index)” value (Shigella (Sf2457T); [5]) was “indifference or partial synergy”. For the same molecule, the “interaction (FIC index)” value (Shigella (Sf2457T); [6]) was “indifference or partial synergy”, the “interaction (FIC index)” value (Shigella (Sf2457T); in combination with mecillinam) was “indifference or partial synergy” and the Tmax (in vivo) was no more than 60 min. The AUC(0-t) (in vivo; 39 mg/kg) was 80000 ng·h/mL, the AUC(0-t) (in vivo; po, 39 mg/kg) was 7500 ± 1500 ng·h/mL and the Cmax (in vivo; po, 39 mg/kg) was 3700 ± 900 ng/mL. It also gave a bioavailability (in vivo; po, 39 mg/kg, Tebipenem PO 39 mg/kg) of roughly 5%, an AUC(0-t) (in vivo; sc, 39 mg/kg) of 80400 ± 7700 ng·h/mL and a Cmax (in vivo; sc, 39 mg/kg) of 71000 ± 15300 ng/mL. For the same molecule, the Tmax (in vivo; sc, 39 mg/kg) was 15 min, the bioavailability (in vivo; sc, 39 mg/kg, Tebipenem SQ 39 mg/kg) was 44 ± 4% and the “reduction of organisms in the small intestine” value (S. flexneri 2457T [2]) was 1.2 log. For the same molecule, the MIC (Campylobacter jejuni) was less than 0.1 µM.
